This is an account of results in US20160113900A1, “INHIBITORS OF MITOCHONDRIAL STAT3 AND USES THEREOF IN MODULATION OF MAST CELL EXOCYTOSIS” (Yissum Research Development Company of the Hebrew …, priority 2014, published 2016).

One experiment deals with plasma histamine. As to the kind of experiment: In vivo histamine release assay, passive systemic IgE-mediated anaphylaxis model. On the procedure: C3H 6-7 week male and female WT mice were purchased from Jackson Lab (Cambridge, Mass., USA), mice were fed a regular diet and with drinking water ad libitum. Experiments were approved by The Hebrew University Ethical Committee for Animal Experimentation.
WT C3H mice were sensitized with 3 μg murine IgE anti-DNP mAb SPE-7 by means of intravenous injection in the tail vein. Twenty-four hours later, mice were treated with 40 mg/kg of static dissolved in corn oil or corn oil alone for 2.5 hours, then mice were challenged with i.v. injection of DNP-BSA (250 μg per mouse). 100 μl of blood was collected immediately and added to an equal volume of pre-cold Alsever's Solution. Blood was centrifuged 2000 g for […] and plasma supernatant was collected. Plasma histamine levels were determined by using competitive ELISA (IBL International Gmbh, Hamburg, Germany).
STAT3's role in vivo was investigated by evaluating the response to allergic stimulation in Stattic-treated mice. The passive systemic IgE-mediated anaphylaxis model was used. Mice were injected (i.v.) with IgE anti-DNP. Twenty four hours later they were injected (i.p.) with Stattic (80 mg/kg) or corn oil which was used as control. Three and a half hours later the mice were challenged with DNP-BSA for 1.5 minutes. Plasma was collected, and histamine levels were measured by competitive ELISA. Histamine secretion in Stattic-treated mice was 43% less than that in control mice (FIG. 17, p<0.05).
Mitocur-1/3 effectiveness in vivo was investigated by evaluating the response to allergic stimulation in Mitocur-1/3-treated mice. The passive systemic IgE-mediated anaphylaxis model was used. Mice were injected (i.v.) with IgE anti-DNP. Twenty four hours later they were injected (i.p.) with Mitocur-1 (80 mg/kg) and Mitocur-3 (40 mg/kg). Corn oil was used as control. Three and a half hours later the mice were challenged with DNP-BSA for 1.5 minutes. Plasma was collected, and histamine levels were measured by competitive ELISA. Histamine secretion in Mitocur-1-treated mice was 35% less than that in control mice (FIG. 22A, p<0.05).

The subject of another experiment is RBL cells. As to the kind of experiment: Oxygen consumption (Seahorse XF analyzer) in RBL cells. As to conditions: RBL cells, 60 μM Stattic, 20 min. Type of experiment: cell-based, rat. The method, then:
RBL-2H3 cells were maintained in RPMI 1640 medium as previously described1. Bone marrow was isolated from 5-6 week-old mice, and BMMC were cultured in RPMI medium supplemented with 20 ng/ml interleukin-3 (IL-3) and 20 ng/ml SCF as previously described2, 3. Cells were generally grown for a minimum of 4 weeks and used when >90% of the population expressed FcεRI. BMMC and RBL cells were sensitized first with anti-DNP IgE monoclonal antibody (SPE-7; Sigma-Aldrich Corp.) and then challenged with DNP-BSA (Sigma-Aldrich Corp.). IgE antibody was centrifuged (18,000 g, 5 min) before use to remove aggregates. […] For glycolysis elimination cells were maintained in glucose-free RPMI supplemented with 10% dialyzed fetal calf serum and 5 mM galactose.
Oxygen consumption rate (OCR) was measured using an XF24 extracellular flux analyzer (Seahorse Biosciences, North Billeric, Mass., USA).

The test system of the next experiment is BMMC. As to the kind of experiment: Measurements of secreted mediators (ELISA) in activated BMMC. Type of experiment: cell-based, mouse. As to conditions: immunologically activated BMMC, 60 μM Stattic 20 min. On the procedure:
1×106 BMMC were immunologically activated as described above. After IgE incubation, the cells were washed three times in PBS and incubated with DNP-albumin (Sigma-Aldrich) for 30 mM in complete growth medium. Supernatant was collected and Granzyme B and TNFα content were measured using ELISA Kits (eBioscience).

Experiment [1] has as its system succinate dehydrogenase (SDH, complex 2). As to the kind of experiment: ETC complex activity analysis in treated RBL cells: complex 2. Type of experiment: cell-based, rat. As to conditions: 60 μM Stattic, 30 min. On the procedure:
The enzymatic activities of respiratory chain complexes were measured at 37° C. by standard spectrophotometric methods as previously described5, 6. Briefly, complex II was measured as succinate dehydrogenase (SDH) based on the succinate-mediated phenazine methosulfate reduction of dichloroindophenol at 600 nm Complex 2+3 were measured as succinate cytochrome c reductase and after the reduction of oxidized cytochrome c at 550 nm. Complex 4 (cytochrome c oxidase) was measured by following the oxidation of reduced cytochrome c at 550 nm.
Citrate synthase (CS), an ubiquitous mitochondrial matrix enzyme, serving as a control, was measured in the presence of acetylCoA and oxaloacetate by monitoring the liberation of CoASH coupled to 5′,5′-dithiobis(2-nitrobenzoic) acid at 412 nm. Activities are presented as a ratio to CS. Protein concentration was determined by the Lowry method and calculated according to a bovine serum albumin (BSA) standard curve.

Each structure is given as a SMILES string.

On to `O=[N+]([O-])c1ccc2c(c1)S(=O)(=O)C=C2` [Stattic, 6-Nitrobenzo[b]thiophene 1,1-dioxide, reference compound], for which the “histamine secretion less than in control mice” value in the experiment with plasma histamine (Stattic 80 mg/kg i.p., 3.5 h before DNP-BSA challenge) was 43%. In the experiment with plasma histamine (mice, Stattic 40 mg/kg, after two and a half hours (data not shown)), the “decrease in histamine secretion” value is recorded as 32.4%. The “reduction in oxygen consumption” value in the experiment with RBL cells is listed as 18.6±8.3%. Also, the “Granzyme B secretion” value in the experiment on BMMC is on record as “greatly reduced”. Further, the “change in succinate dehydrogenase (SDH, complex 2) activity” value in experiment [1] was “No significant change”.
